Data: PMC8238948, “Potent inhibitors of toxic alpha-synuclein identified via cellular time-resolved FRET biosensors” (NPJ Parkinson's Disease, 2021)
“Also recorded” adds a separate entry of the source. Values belong to the molecule of their own block, whether it stands above or below them.

How the values were obtained:
[1] = tested on: inter-protomeric and intra-protomeric αSN FRET biosensors in HEK293 cells; assay: Pilot HTS of the LOPAC library, fluorescence lifetime (FLT) of cellular αSN FRET biosensors; type: cell-based, human; details: 10 µM compound, 90 min; hit = FLT change >5 SD
Method: Prior to each pilot HTS, FLT and emission spectrum were measured to verify signal level, basal FRET, coefficient of variance (CV), and similarity index. For each HTS, cells were dispensed into compound plates—1536-well (10 µL/well)—and incubated with the compounds (10 µM) or dimethyl sulfoxide (DMSO; 1%) for 90 min. FLT measurements were acquired with the FLT-PR. After deconvolving the instrument response function, a single exponential fit was used to determine the FLT for both the αSN cellular FRET biosensor (τDA) and the donor-only control biosensor (τD). FRET efficiency was determined by Eq. 1. CV was determined from control plates (N = 384 wells).
Fluorescent compounds (FC) were flagged using a spectral similarity index filter, which evaluates the ratio of intensity from two bandwidths that span the donor emission spectrum and are excluded as potential false positives[45],[46],[49],[51],[66]. […] Compounds that changed FLT by >5 standard deviations (SD) were considered hits (Fig. 5, red data points).
On each day of screening, the compound plates were equilibrated to room temperature (RT; 25 °C). The cells were harvested from the 100-mm plates by incubating with TrypLE (Invitrogen) for 2 min, washed three times in PBS by centrifugation at 200 × g, and filtered using 70-μm cell strainers (BD Falcon). Cell viability prior to screen was assessed using a trypan blue assay and confirmed to be >80%. Cells were diluted to 1.5E6 cells/mL. Expression of GFP-αSN and the αSN biosensors were confirmed by fluorescence microscopy prior to each screen (EvosFL-Auto microscope, Thermo Fisher Scientific, USA). During screening, cells (50 μL/well for 384-well; 10 μL/well for 1536-well) were dispensed by a Multidrop Combi liquid dispenser (Thermo, Pittsburg, PA, USA) into the assay plates containing the compounds and allowed to incubate at RT for 90 min before recording with the FLT-PR or SUPR (both instruments manufactured by Fluorescence Innovations Inc., both owned and provided by Photonic Pharma LLC), as described previously[46].
Interfering compounds were flagged as potential false positives by a set of stringent FC filters based on spectral analysis of each well from the LOPAC screen[45],[46]. After removal of FCs, a histogram of the FLT distribution from all compounds in the screen was plotted and fit to a Gaussian curve to obtain the mean (µ) and SD (σ). A hit was defined as a compound that attenuated the FLT efficiency by >5σ relative to the mean µ (Supplementary Fig. 12).

αSN oligomers = target: T1, αSN oligomers (Homo sapiens, UniProt P37840); assay: ThT content (β-sheet) of αSN oligomers after oligomerization assay; type: biochemical; details: 70 μM compound (1:5 compound:monomer), 12 h oligomerization; vs DMSO
T1 construct: made in house; host or cells: Escherichia coli BL21(DE3), T7-7 plasmid
Method: To explore the presence of β-sheet content in these oligomers, an aliquot was removed prior to cross-linking, diluted into 100 μM ThT working solution, and ThT fluorescence was monitored to detect the presence of β-sheet. Supplementary Fig. 22 presents each sample ThT content normalized to the PFF signal. We observed an increased ThT content in the αSN oligomers (αS-O) that was not affected by DMSO (vehicle) treatment.
A 10-μL aliquot from each sample was taken and diluted with 290 μL ThT working solution (100 μM ThT in PBS) and dispensed into 3 wells of a 384-well, black opaque plate. Additional samples of PBS, αSN(m), and αSN PFF were used as controls. Plates were incubated at ambient temperature for 10 min and then fluorescence read at 450ex/490em on a Spectromax-i3x (Molecular Devices).
Supplemental Figure 22. Characterization of β-sheet content in αSN oligomers due to hit compound
After the 12-hour oligomerization assay aliquots of each sample were
removed and diluted in 100μM ThT and fluorescence read in triplicate (450ex/490em) in 384-well plates. The
ThT signal was normalized to a signal from previously frozen αSN PFF aliquots. After completion of the
PFF, green bar) and the ThT signal was not affected by DMSO (red bar). Oligomerization in the presence of
control compounds, EGCG and Baicalin, at 70μM (a sub-stoichiometric,1:5 compound: monomer ratio)
Our hit compounds RO, DEM, and BAY had differential effects with
both DEM and BAY resulting in increased ThT content and RO not producing a significant change relative to
(1 picture or pasted object on this page, not shown here)

[2] = target: T2, αSN (15 μM monomeric αSN doped with 5% αSN PFF seeds) (Homo sapiens, UniProt P37840); assay: Seeded Thioflavin-T aggregation assay; type: biochemical; details: 15 μM αSN monomer + 5% PFF; for IC50: 37 °C, max ThT intensity
T2 construct: made in house; host or cells: Escherichia coli BL21(DE3), T7-7 plasmid
Method: Figure 11 and Supplementary Fig. 23 present results from a dose-response-seeded aggregation assay. Vehicle, control, and hit compounds were incubated with 15 µM αSN(m), doped with 5% freshly sonicated αSN PFF in PBS under mild agitation (Supplementary Fig. 23a). […] Titration of control and hit compounds were run in triplicate; representative traces of hit compounds are illustrated in Fig. 11a with a full summary of each titration detailed in Supplementary Fig. 23c–h. IC50 was determined for each compound by determining the max ThT intensity for each concentration (Fig. 11b).
Seeded ThT aggregation assay was performed using 15 μM monomeric αSN doped with 5% (0.75 μM sonicated αSN pre-formed fibril (PFF) seeds) in a 384-well plate under slow agitation (300 RPM) at 37 °C. a Control samples for the aggregation include PBS (black), αSN monomer (brown), 5% αSN PFF (red), and the 15 μM monomer+5% PFF mixture (orange). Dose-response curves were made with a titration of compounds. […] In contrast, RO and DEM both show potent effects relative to Baicalin and EGCG controls. BAY does have some response, but it lags behind other hit compounds. b Normalizing the initial peak in ThT data allows us to estimate an IC50 for each hit. […] Although there is a small trend with BAY, the data cannot be fit to resolve an IC50.
ThT (Sigma, product no. T3516) was dissolved in PBS buffer and was filtered through a 0.2-µm syringe filter to make a stock solution of 2.5 mM. Working ThT concentration was 20 µM. PFF seeds were produced via constant agitation of 1000 RPM at 37 °C (ThermoMixer-C, Eppendorf, Hauppauge, NY) of 500 µL of 350 µM αSN in PBS in a 2 mL tube for 5 days. PFFs were aliquoted and flash frozen and stored at −80 °C until further use. PFF seeds were rapidly thawed, diluted to 35 µM in PBS, and sonicated 120 pulses at 50% using a probe-tip sonicator following the established protocols. Master mix samples for each of the different ThT assays were prepared and dispensed in triplicate as 50 µL in 384-well flat, black-bottom polypropylene plates (PN 781209, Greiner Bio-One) and sealed with fluorescently transparent film. Conditions for non-seeded, seeded, and cell homogenate assays varied slightly.
Seeded ThT experiments were performed at a lower monomer concentration to preclude spontaneous αSN aggregation during the time course of the experiment. For both seeded and cell homogenate experiments, sample were prepared in PBS + 20 µM ThT with or without 15 µM αSN(m) +/− 5% PFF (0.75 µM). Additional control samples of 15 µM PFF and 0.75 µM PFF were also prepared. All empty wells were filled with PBS for a thermal sink and to help prevent evaporation. Assay plates were prepared as pre-cellular FRET dose response above. Dose response was done across 8 concentrations (10 nM to 50 µM). The assay was run at 37 °C with mild shaking (200 RPM) in a Cytation3 plate reader. The ThT fluorescence was monitored with excitation filter of 450 nm and emission filter of 490 nm. Readings were acquired every 20 min for a minimum of 24 h. Seeded ThT aggregation IC50 values were determined by first normalizing all ThT curves to the maximal signal at plateau for the αSN + 5% PFF + DMSO samples. The normalized fluorescence at each concentration was fit to the Hill equation to resolve an effective IC50 of seeded aggregation inhibition.

[3] = tested on: differentiated SH-SY5Y cells treated with sonicated human αSN PFF; assay: Differentiated SH-SY5Y cell model of αSN PFF pathology (pS129 immunoblot); type: cell-based; details: 50 μM Baicalin, 200 nM human PFF, 48 h
Method: SH-SY5Y cells were differentiated using reduced serum (3%) media supplemented with 10 μM retinoic acid for 3 days and then changed to serum-free media supplemented with 10 ng/mL brain-derived neurotrophic factor for the remainder of the experiment. Stock αSN PFFs were diluted and sonicated as described previously. SH-SY5Y cultures were then treated with 200 nM PFF and PBS, DMSO, 1 μM drug compound (RO, BAY, or DEM), or 50 μM Baicalin. After 48 h, SH-SY5Y were washed with PBS and harvested in cold lysis buffer with protease and phosphatase inhibitors, as previously described. Approximately 15 μg of total protein was loaded onto a 4–20% Criterion TGX midi gel and probed using Syn1 (BD Biosciences, #610787; 1° 1:5000; 2° 1:10K) and pS^129 aSyn (abcam, ab59264; 1° 1:1000; 2° 1:5000) and a-tubulin (abcam, ab4074; 1° 1:1000; 2° 1:10K) page 19: Supplemental Figure 18. […] Differentiated SH-SY5Y cells were treated with PBS, vehicle (DMSO) or compounds with and without 200nM sonicated human αSN PFFs. […] These will be removed in subsequent densitometry analysis. (b) Replicates of PFF +/- compound treatment were ran for immunoblot analysis of pS129 immunoreactivity. (c) Densitometry analysis was performed using ImageLab from BioRad. Total pS129 signal (excluding the non- specific bands) was normalized to tubulin loading control. […] Quantification is normalized per lane to highlight change in the ratio of different species. Note, oligomers quantification is plotted relative to the right-y- axis. All statistical comparisons were to DMSO treatment using two-tailed t-test with * p<0.05; ** p<0.01; *** p<0.005.

[4] = tested on: SH-SY5Y cells overexpressing unlabeled wild-type (WT) αSN; assay: CytoTox-Glo cytotoxicity assay: rescue of αSN-induced cytotoxicity; type: cell-based, human
Method: Hit compounds were evaluated for rescue of αSN-induced cytotoxicity in using an SH-SY5Y neuroblastoma cell model of alpha-synucleinopathy[18],[69]–[72]. […] A seven-point CRC for RO, BAY, DEM, and Anle138b (positive control compound[41],[73]) was performed to determine IC50 for each compound. […]
Cell cytotoxicity was measured using the CytoTox-Glo (Promega Corporation) Luminescence Assay Kit. SH-SY5Y human neuroblastoma cells were plated at a density of 5 × 10^6 cells/plate in 100 mm plate (Corning) and transfected with unlabeled WT αSN or equivalent vector-only control for 24 h. The transfected cells were then plated at a density of 5000 cells/well in white solid 96-well plate (Corning) with a total volume of 100 μL, followed by treatment with hit compounds spanning a range of concentrations (0.1 nM to 100 μM), as well as DMSO-only controls, for another 48 h. After incubation, 50 μL of CytoTox-Glo Cytotoxicity Assay Reagent was added to all wells followed by mixing by orbital shaking and incubation in the dark for 15 min at RT. Luminescence readings were measured using a Cytation3 Cell Imaging Multi-Mode Reader luminometer (BioTek). After the first read, 50 μL of Lysis Reagent was added, incubated for 15 min at RT, and a second read performed. Total viable cellular luminance was determined by the difference between the first and second luminescence signal and total cellular viability is determined by normalizing to the no-treatment samples.

[5] = target: T3, A53T αSN oligomer (inter-protomeric) FRET biosensor in HEK293 cells (Homo sapiens, UniProt P37840, A53T); assay: FLT dose response, A53T oligomer (inter-protomeric) FRET biosensor; type: cell-based; details: 1 nM to 50 μM
T3 construct: In addition to full-length αSN fusion constructs, we observe both C-terminally and N-terminally truncated αSN species; expressed in transfected cells; host or cells: HEK293
Method: (§1) Hits from the pilot HTS of the LOPAC library were selected and dispensed into 384-well plates to verify reproducible and specific FLT trends using the WT and A53T oligomer (inter-protomeric) FRET biosensors. Figure 6 presents a subset of these dose-response curves for hit compounds RO, BAY, SB206553, and DEM, along with known control compound EGCG. […] Assay quality was determined by Z′ (Eq. 2) where a Z′ > 0.5 indicates good assay quality. Using EGCG as control compound and the hit DEM, we calculated Z′ value of 0.76 and 0.66, respectively, indicating excellent assay quality.
(§2) Fig. 6 FRET dose response of pilot HTS hits. A subset of hits were evaluated using both WT (a) and A53T (b) oligomer biosensor to verify both increased FLT (disrupting αSN–αSN interactions) and decreased FLT (tighter aggregation or remodeled oligomers).
(§3) Compounds were tested in a FLT dose-response assay. The compound was dissolved to 10 mM in DMSO, then serially diluted in 96-well mother plates. Each hit was re-screened for FLT dose response across eight concentrations (1 nM to 50 μM). Compounds (0.5 μL) were transferred from mother plates into assay plates using a Mosquito HV liquid handler (TTP Labtech Ltd, UK). The preparations for αSN FRET biosensors were carried out as above.

[6] = target: T4, WT αSN oligomer (inter-protomeric) FRET biosensor in HEK293 cells (Homo sapiens, UniProt P37840); assay: FLT dose response, WT oligomer (inter-protomeric) FRET biosensor; type: cell-based; details: 1 nM to 50 μM
T4 construct: In addition to full-length αSN fusion constructs, we observe both C-terminally and N-terminally truncated αSN species; expressed in transfected cells; host or cells: HEK293
Method: as §1, §2, §3

αSN oligomerization = tested on: αSN oligomerization; design: method as in PMID 23604588; details: read-out: apparent EC50, inhibition of αSN oligomerization; cited from earlier work
[7] = target: T5, intra-protomeric αSN biosensor (GFP-αSN-RFP) in HEK293 cells (Homo sapiens, UniProt P37840); assay: FRET response on intra-protomeric αSN biosensor; type: cell-based; details: 10 µM
T5 construct: In addition to full-length αSN fusion constructs, we observe both C-terminally and N-terminally truncated αSN species; expressed in transfected cells; host or cells: HEK293
Method: Hits were also evaluated with the intra-protomeric αSN and control, non-specific biosensors. […] The compounds RO, BAY, and DEM as well as the control EGCG each reduced FRET, indicating either reduction in oligomerization or expanded oligomer conformation. Tests of these compounds in two control biosensor systems (GFP/RFP at 1:8 and GFP-linker32-RFP; see Supplementary Fig. 13a, b, respectively) show no significant FRET change.
Fig. 7 FRET response to pilot HTS hits on intra-protomeric αSN biosensor. […] With both donor and acceptor XFP fused to one construct, this biosensor is sensitive to both oligomer formation as well as conformation. […] Experiments were performed with n = 3; *p < 0.05, **p < 0.01, ***p < 0.001, ns indicates no significant difference as determined by Student’s t test.

Molecule: Cn1c(=O)c(-c2c(Cl)cccc2Cl)cc2cnc(Nc3ccc(N4CCOCC4)cc3)nc21 [PD173952]
identified as hit in the LOPAC screen [1]: identified

Molecule: O=C1Nc2cc(Br)ccc2/C1=C1/Nc2ccccc2/C1=N\O [Bio]
identified as hit in the LOPAC screen [1]: identified

Molecule: O=C(O)[C@H]1O[C@@H](Oc2cc3oc(-c4ccccc4)cc(=O)c3c(O)c2O)[C@H](O)[C@@H](O)[C@@H]1O [Baicalin]
ThT signal of αSN oligomers (αSN oligomers): complete loss of ThT signal
IC50 [2]: 0.387 µM
HMW pS129 signal [3]: strong HMW pS^129 signal
LMW oligomer pS129 fraction [3]: significantly reduced

Molecule: SB206553
rescue of αSN-induced cytotoxicity ([4]; dose response, 48-h exposure): no observed effect on cytotoxicity
rescue of toxicity in three-dose preliminary screen ([4]; three-dose assay): no rescue of toxicity
effect on seeded aggregation ([2]; titration up to 50 μM): no aggregation inhibition; also recorded: little to no effect on aggregation
FLT trend in dose response [5]: increasing FLT trend; also recorded: mild recovery of FLT
FLT trend in dose response [6]: increasing FLT trend; also recorded: mild recovery of FLT

Molecule: N#C/C(=C\c1ccc(-c2cc(Cl)ccc2Cl)o1)C(=O)Nc1cccc2ncccc12 [AGK2]
identified as hit in the LOPAC screen [1]: identified

Molecule: Brc1cccc(-c2cc(-c3ccc4c(c3)OCO4)[nH]n2)c1 [Anle138b]
EC50 ([4]; Homo sapiens, SH-SY5Y, 72-h transfection, 48-h exposure to compound, seven-point CRC, read-out: EC50, protection of SH-SY5Y cells from αSN-induced death): 0.9 µM
EC50 (αSN oligomerization): 2.8 µM

change in intra-protomeric FRET [7]: reduced FRET
ThT signal of αSN oligomers (αSN oligomers): complete loss of ThT signal
IC50 [2]: 1.1 µM
FLT trend in dose response [5]: reduced donor FLT
FLT trend in dose response [6]: reduced donor FLT
Molecule: O=C(O[C@@H]1Cc2c(O)cc(O)cc2O[C@@H]1c1cc(O)c(O)c(O)c1)c1cc(O)c(O)c(O)c1 [EGCG]
